pEC50: −log10 of the molar value. Where two headings read alike, the source gives them in different places.
Experiments:
Assay in all cases: microbe, parasite or virus in culture
Format in all cases: cell-based, influenza virus H1N1
[1] = tested on: VX-787-resistant A/PR/8/34 (H1N1)
[2] = tested on: Baloxavir-resistant A/PR/8/34 (H1N1)
[3] = tested on: Oseltamivir-resistant A/Weiss/43 (H1N1)

SMILES | pEC50 ([1]; Influenza A virus, MDCK, 120 h) | pEC50 ([2]; Influenza A virus, MDCK, 120 h) | pEC50 ([3]; Influenza A virus, H1N1, MDCK, 120 h) | pEC50 ([3]; read-out: EC50) | pEC50 ([1]; read-out: EC50) | pEC50 ([2]; read-out: EC50)
O=C1c2c(O)c(=O)ccn2N([C@@H]2c3ccccc3SCc3c2ccc(F)c3F)[C@@H]2COCCN12 [Baloxavir, baloxivir] | 9.24 | 7.02 | – | – | – | –
CCC(CC)O[C@@H]1C=C(C(=O)O)C[C@H](N)[C@H]1NC(C)=O [Oseltamivir acid] | 5.97 | 5.62 | < 4.00 | – | – | –
CC(=O)N[C@H]1[C@H]([C@H](O)[C@H](O)CO)OC(C(=O)O)=C[C@@H]1N=C(N)N [Zanamivir, zanamivir, reference compound] | – | – | – | 7.61 | 6.78 | 5.86

Reference: US20250144220A1, “CONJUGATE FOR PREVENTING AND TREATING VIRAL INFECTIONS AND USE THEREOF” (priority 2021, published 2025)
